Data on 1 molecule can be found in patent US20110082203A1, “PROCESS TO DIAGNOSE OR TREAT BRAIN INJURY” (priority 2008, published 2011).

Assay [1] is described as follows: Body weight loss after controlled cortical impact (CCI) TBI. The class given is in vivo, rat. As to conditions: 5 mg/kg i.p. five minutes prior to TBI.
Experimental: (§1) In vivo model of TBI injury model: A controlled cortical impact (CCI) device is used to model TBI on rats as previously described (Pike et al, 1998). Adult male (280-300 g) Sprague-Dawley rats (Harlan: Indianapolis, Ind.) are anesthetized with 4% isoflurane in a carrier gas of 1:1 O2/N2O (4 min.) and maintained in 2.5% isoflurane in the same carrier gas. Core body temperature is monitored continuously by a rectal thermistor probe and maintained at 37±1° C. by placing an adjustable temperature controlled heating pad beneath the rats. Animals are mounted in a stereotactic frame in a prone position and secured by ear and incisor bars. Following a midline cranial incision and reflection of the soft tissues, a unilateral (ipsilateral to site of impact) craniotomy (7 mm diameter) is performed adjacent to the central suture, midway between bregma and lambda. The dura mater is kept intact over the cortex. Brain trauma is produced by impacting the right (ipsilateral) cortex with a 5 mm diameter aluminum impactor tip (housed in a pneumatic cylinder) at a velocity of 3.5 m/s with a 1.6 mm compression and 150 ms dwell time.
Subjects are administered CCI essentially as described in Example 2 and CSF is prepared as described in Example 4. […] The vehicle-treatment group receives an equal volume i.p. injection of isotonic saline. […]
Assay [2] has as its system α-II spectrin breakdown products (SBDP). As to conditions: 5 mg/kg i.p. five minutes prior to TBI.
Experimental: as §1
Tissue and Sample Preparation: At the appropriate time points (2, 6, 24 hours and 2, 3, 5 days) after injury, animals are anesthetized and immediately sacrificed by decapitation. Brains are quickly removed, rinsed with ice cold PBS and halved. […]
In assay [3] the test system is Fluoro-Jade positive neurons. The assay can be described thus: Fluoro-Jade staining of degenerating neurons following CCI, counted by optical fractionator. The class given is in vivo, rat. How it is done: Fluoro-Jade is used to determine whether the presence of dicyclomine affects cell death following CCI. Experimental procedures are performed as described by Cox, C D, et al. 2008. Briefly, at 24 hours (±1 hr) following the perfusion, brains are rinsed in 0.1M PB (5 minutes×2), cryoprotected in 10% and 30% solutions of sucrose in 0.1M PB for 1 hour and 48 hours, respectively, and stored in the 30% sucrose/PB solution at −80° C. The brains are blocked and sectioned caudorostrally in 45 μm increments from Bregma—1.9 mm to Bregma—4.15 mm using a sliding microtome (American Optical Corp., model 860). The tissue sections are then mounted onto slides using distilled water and allowed to dry. For the Fluoro-Jade staining procedure (Schmued et al., 1997), the sections are rehydrated using successive 5 minute rinses in 100%, 75%, 50%, and 25% ethanol followed by 3 minutes in dH2O, placed in 0.06% KMNO4 for 15 minutes followed by 2 minutes in dH2O, and then stained in 0.0006% Fluoro-Jade B solution in 0.1% acetic acid for 30 minutes. The slides are air-dried overnight, immersed in xylene, and coverslipped with DPX.
The total number of Fluoro-Jade stained cells within the CA2/CA3 region of the dorsal hippocampus for each subject is estimated using the optical fractionator technique (West et al., 1991) with a computer-based system (Stereologer version 1.3, Systems Planning and Analysis, Inc., Alexandria, Va.). The border of the dorsal CA2/3 pyramidal cell layer within each section was outlined using a 2× objective, and the cells are then manually counted at the 40× magnification. For the cortical cell counts, a site of highly localized Fluoro-Jade positivity observed in the cortex adjacent to the site of impact serves as the ROI: the region was outlined at the 2× magnification and cells were quantified at 40× as with the hippocampal region. A numerical estimate of the total number of cells in each region of interest for each subject is calculated by the software using the equation:
Nobj=(N)(1/SSF)(1/ASF)(1/TSF)
Where N represents the sum of all objects counted for the subject, SSF the section sampling fraction, ASF the area sampling fraction, and TSF the thickness sampling fraction.

With `CCN(CC)CCOC(=O)C1(C2CCCCC2)CCCCC1` [Dicyclomine, dicyclomine], the “% Body Weight Loss” value in assay [1] (mean +/- spread, * p<0.01 vs saline) is on record as “*7.8 +/− 2.08%”. Moreover, the “Percent body weight loss compared to the saline-treated group” value in assay [1] (p<0.01) was “significantly reduced”. The “Production of SBDPs in CSF following TBI” value in assay [2] was “inhibits production of SBDPs”. Further, the “Mean number of Fluoro-Jade positive neurons, hippocampal ROI” value in assay [3] (CA2/CA3 dorsal hippocampus, 24 hours post-TBI, 5 mg/kg i.p., vehicle 2982) came out at 2640. Also, in assay [3] (cortex adjacent to impact site, 24 hours post-TBI, 5 mg/kg i.p., vehicle 84392), the “Mean number of Fluoro-Jade positive neurons, cortical ROI” value came to 84452. Further, the “Effect on neuronal cell viability” value in assay [3] (following TBI) is given as “no effect”. In addition, in assay [3] (hippocampal and cortical ROIs, dicyclomine vs vehicle), the “Difference in Fluoro-Jade positive neurons between treatment groups (T-test)” value was “no significant difference”.
